Counter-ions that a name gives are not always drawn.
Molecular target: recombinant active human PAI-1 (Homo sapiens (Human), UniProt P05121)
Test: β-trypsin screening assay for PAI-1 inhibitors;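 further: fluorogenic readout with PAI-1 and β-trypsin at 10:1 molar ratio, untreated PAI-1 wells set as 100% PAI-1 activity and β-trypsin alone as 0%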
Assay type: biochemical
Conditions: 10 μM compound; hit = more than 3 standard deviations above control

Chain of recombinant active human PAI-1 (P05121 24-402): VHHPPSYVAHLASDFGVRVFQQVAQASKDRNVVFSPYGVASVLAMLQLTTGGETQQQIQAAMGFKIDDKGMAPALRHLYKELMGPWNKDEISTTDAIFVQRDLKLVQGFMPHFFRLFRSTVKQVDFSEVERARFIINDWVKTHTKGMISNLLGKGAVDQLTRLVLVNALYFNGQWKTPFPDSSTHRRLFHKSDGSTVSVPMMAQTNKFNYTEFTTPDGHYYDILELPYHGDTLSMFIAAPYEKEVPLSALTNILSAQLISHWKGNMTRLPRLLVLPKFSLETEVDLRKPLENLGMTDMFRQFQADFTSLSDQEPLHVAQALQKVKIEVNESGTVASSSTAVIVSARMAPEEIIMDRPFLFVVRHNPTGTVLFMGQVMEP

Compound	screening hit: restoration of β-trypsin activity
CC1=NCCc2c1[nH]c1cc(O)ccc21.Cl [HARMALOL HYDROCHLORIDE]	demonstrate PAI-1 inhibitor activity
Oc1cc(O)c2c(c1)O[C@H](c1cc(O)c(O)c(O)c1)[C@H](O)C2 [EPIGALLOCATECHIN]	demonstrate PAI-1 inhibitor activity
O=c1cnn([C@H]2O[C@@H](CO)[C@H](O)[C@@H]2O)c(=O)[nH]1 (stereo in doubt) [6-AZAURIDINE]	demonstrate PAI-1 inhibitor activity
CC(=O)Oc1cccc(C(=O)O)c1OC(C)=O [DIPYROCETYL]	demonstrate PAI-1 inhibitor activity
CC12CCC3C(CCC4(O)CC(O)CCC34/C=N/NC(N)=O)C1(O)CCC2C1=CC(=O)OC1 (stereo not shown) [STROPHANTHIDIN SEMICARBAZIDE]	demonstrate PAI-1 inhibitor activity
COc1ccc(CCN(C)CCC[C@](C#N)(c2ccc(OC)c(OC)c2)C(C)C)cc1OC [Benzeneacetonitrile, Alpha-[3-[[2-(3,4-dimethoxyphenyl)ethyl]methylamino]propyl]-3,4-dimethoxy-Alpha-(1-methylethyl)-, (R)-]	demonstrate PAI-1 inhibitor activity
NC(=O)N1c2ccccc2CC(=O)c2ccccc21 [OXCARBAZEPINE]	demonstrate PAI-1 inhibitor activity
CC(C)(C)NC[C@H](O)c1ccc(O)c(CO)c1 [LEVALBUTEROL HYDROCHLORIDE]	demonstrate PAI-1 inhibitor activity
O=C(O)c1cc(O)c2c(c1)[C@H]([C@H]1c3cc(C(=O)O)cc(O)c3C(=O)c3c(O[C@@H]4O[C@H](CO)[C@@H](O)[C@H](O)[C@H]4O)cccc31)c1cccc(O[C@@H]3O[C@H](CO)[C@@H](O)[C@H](O)[C@H]3O)c1C2=O [SENNOSIDE A]	demonstrate PAI-1 inhibitor activity
COc1cc(OC)c2c(c1)O[C@H](c1ccc(OC)c(OC)c1)[C@@H](O)C2	demonstrate PAI-1 inhibitor activity
C=C[C@@](C)(O)CC[C@H]1C(=C)C[C@H](O)[C@H]2C(C)(C)CCC[C@]12C [LARIXOL]	demonstrate PAI-1 inhibitor activity
CC(=O)Oc1cc(-c2coc3cc(OC(C)=O)c(OC(C)=O)c(OC(C)=O)c3c2=O)cc(OC(C)=O)c1OC(C)=O [IRIGINOL HEXAACEATATE]	demonstrate PAI-1 inhibitor activity
O=c1c(-c2cc(O)c(O)c(O)c2)coc2cc(O)c(O)c(O)c12 [IRIGENOL]	demonstrate PAI-1 inhibitor activity
C=C1/C(=C\C=C2/CCC[C@@]3(C)[C@@H]2CC[C@H]3[C@H](C)/C=C/[C@@H](O)C2CC2)C[C@@H](O)C[C@H]1O [CALCIPOTRIOL]	demonstrate PAI-1 inhibitor activity
CCOC(=O)C1(O)Oc2cc(OC)cc(OC)c2C(=O)C1c1ccccc1 (stereo not shown) [2-ETHOXYCARBONYL-2-HYDROXY-5,7-DIMETHOXYISOFLAVANONE]	demonstrate PAI-1 inhibitor activity
c1ccc(-c2ccc(C(c3ccccc3)n3ccnc3)cc2)cc1 (stereo not shown) [BIFONAZOLE]	demonstrate PAI-1 inhibitor activity
CCN(CC)CCCC(C)Nc1c2ccc(Cl)cc2nc2ccc(OC)cc12 (stereo not shown) [QUINACRINE HYDROCHLORIDE]	demonstrate PAI-1 inhibitor activity
COc1ccccc1/C=C\C(=O)O [COUMARINIC ACID METHYL ETHER]	demonstrate PAI-1 inhibitor activity
O=c1c(O)cccc2cc(O)c(O)c(O)c12 [PURPUROGALLIN]	demonstrate PAI-1 inhibitor activity
CCN(CC)C(=O)N1CCN(C)CC1 [DIETHYLCARBAMAZINE CITRATE]	demonstrate PAI-1 inhibitor activity
Cc1onc(-c2ccccc2)c1-c1ccc(S(N)(=O)=O)cc1 [VALDECOXIB]	demonstrate PAI-1 inhibitor activity
CC1=C(O)C(=O)C=C2C1=CC=C1[C@@]2(C)CC[C@@]2(C)[C@@H]3C[C@](C)(C(=O)O)CC[C@]3(C)CC[C@]12C [CELASTROL]	demonstrate PAI-1 inhibitor activity
C[C@H]1COc2c(C3(N)CC3)c(F)cc3c(=O)c(C(=O)O)cn1c23 [PAZUFLOXACIN]	demonstrate PAI-1 inhibitor activity
CCc1oc2ccccc2c1C(=O)c1cc(Br)c(O)c(Br)c1 [NSC 85433]	demonstrate PAI-1 inhibitor activity
CCN(CC)CCOc1ccc(C(=C(Cl)c2ccccc2)c2ccccc2)cc1 [CLOMIPHENE CITRATE]	demonstrate PAI-1 inhibitor activity
O=C(Oc1cc(O)cc2c1C[C@@H](OC(=O)c1cc(O)c(O)c(O)c1)[C@@H](c1cc(O)c(O)c(O)c1)O2)c1cc(O)c(O)c(O)c1 [EPIGALLOCATECHIN 3,5-DIGALLATE]	demonstrate PAI-1 inhibitor activity
CCOP(=S)(OCC)SCSCC [PHORATE]	demonstrate PAI-1 inhibitor activity
COc1ccccc1OCCNCC(O)COc1cccc2[nH]c3ccccc3c12 (stereo not shown) [Carvedilol]	demonstrate PAI-1 inhibitor activity

Compound	screening hit: restoration of β-trypsin activity
CC1(C)S[C@@H]2[C@H](NC(=O)[C@H](NC(=O)N3CCNC3=O)c3ccccc3)C(=O)N2[C@H]1C(=O)[O-].[Na+] [AZLOCILLIN SODIUM]	demonstrate PAI-1 inhibitor activity
Cc1cc(C(C)(C)C)cc(C)c1CC1=NCCN1 [XYLOMETAZOLINE HYDROCHLORIDE]	demonstrate PAI-1 inhibitor activity
C[N+](C)(C)CCOC(N)=O [CARBACHOL]	demonstrate PAI-1 inhibitor activity
O=c1c(O)cc([C@H]2Oc3cc(O)cc(O)c3C[C@H]2O)cc2c([C@H]3Oc4cc(O)cc(O)c4C[C@H]3O)cc(O)c(O)c12 [THEAFLAVIN]	demonstrate PAI-1 inhibitor activity
CC[C@@]1(O)C[C@@H]2CN(CCc3c([nH]c4ccccc34)[C@](C(=O)OC)(c3cc4c(cc3OC)N(C)[C@@H]3[C@]45CCN4CC=C[C@@](CC)(C(O)[C@]3(O)C(N)=O)[C@H]45)C2)C1.O=S(=O)(O)O (stereo partly shown) [VINDESINE SULFATE]	demonstrate PAI-1 inhibitor activity
CC(C)=CCCC1(C)C=Cc2c(O)c3c(c(CC=C(C)C)c2O1)OC12C(=CC4CC1C(C)(C)OC2(C/C=C(/C)C(=O)O)C4O)C3=O (stereo not shown) [DIHYD[…]]	demonstrate PAI-1 inhibitor activity
O=C(O[C@H]1Cc2c(O)cc(O)cc2O[C@H]1c1cc(O)c(=O)c2c(O)c(O)cc([C@@H]3Oc4cc(O)cc(O)c4C[C@@H]3O)c2c1)c1cc(O)c(O)c(O)c1 [THEAFLAVIN MONOGALLATES]	demonstrate PAI-1 inhibitor activity
SAPPANONE A DIMETHYL ETHER	demonstrate PAI-1 inhibitor activity
N=C1C=CC(=C(c2ccc(N)cc2)c2ccc(N)cc2)C=C1 [PARAROSANILINE PAMOATE]	demonstrate PAI-1 inhibitor activity
NCCC(=O)N[C@@H](Cc1c[nH]cn1)C(=O)O [CARNOSINE]	demonstrate PAI-1 inhibitor activity
CC(C)C[C@H](NC(=O)[C@@H](O)[C@H](N)Cc1ccccc1)C(=O)O [BESTATIN]	demonstrate PAI-1 inhibitor activity
c1ccc2c(Cc3c[nH]c4ccccc34)c[nH]c2c1 [3,3′-DIINDOLYLMETHANE]	demonstrate PAI-1 inhibitor activity
CCOC(=O)C1=C(C)N=C(C)/C(=C(/O)OCC)C1c1ccccc1/C=C/C(=O)OC(C)(C)C (stereo not shown) [LACIDIPINE]	demonstrate PAI-1 inhibitor activity
COc1ccc2[nH]cc(C3=CCNCC3)c2c1 [RU 24969]	demonstrate PAI-1 inhibitor activity
C=C1c2cccc(O)c2C(=O)C2=C(O)[C@]3(O)C(=O)C(C(N)=O)=C(O)[C@@H](N(C)C)[C@@H]3[C@@H](O)[C@H]12 [METHACYCLINE HYDROCHLORIDE]	demonstrate PAI-1 inhibitor activity
Clc1ccc(CONC(Cn2ccnc2)c2ccc(Cl)cc2Cl)c(Cl)c1.O=[N+]([O-])O (stereo not shown) [OXICONAZOLE NITRATE]	demonstrate PAI-1 inhibitor activity
CC(CCC(=O)O)[C@H]1CCC2C3CCC4CCCC[C@]4(C)C3CC[C@@]21C (stereo partly shown) [URSOCHOLANIC ACID]	demonstrate PAI-1 inhibitor activity
O=c1c(-c2ccccc2)coc2cc(O)cc(O)c12 [5,7-DIHYDROXYISOFLAVONE]	demonstrate PAI-1 inhibitor activity
COc1c(Cl)c(C)c2c(c1Cl)OC(=O)c1c(C)c(Cl)c(O)c(Cl)c1O2 [DIPLOICIN]	demonstrate PAI-1 inhibitor activity
O=C(O[C@@H]1Cc2c(O)cc(O)cc2O[C@@H]1c1ccc(O)c(O)c1)c1cc(O)c(O)c(O)c1 [EPICATECHIN MONOGALLATE]	demonstrate PAI-1 inhibitor activity
CCN(CC)CCNC(=O)c1ccc(N)cc1 [PROCAINAMIDE HYDROCHLORIDE]	demonstrate PAI-1 inhibitor activity
CCOC(=O)c1ccc(OC(=O)CCCCCN=C(N)N)cc1.CS(=O)(=O)O [GABEXATE MESYLATE]	demonstrate PAI-1 inhibitor activity
CC(C)=CCCC1(C)C=Cc2c(O)c3c(c(CC=C(C)C)c2O1)OC12C(=CCCC1C(C)(C)O[C@@]2(C/C=C(\C)C(=O)O)C(=O)O)C3=O (stereo partly shown) [GARCINOLIC ACID]	demonstrate PAI-1 inhibitor activity
CHLORAMPHENICOL HEMISUCCINATE	demonstrate PAI-1 inhibitor activity
C=CC1=C(C(=O)O)N2C(=O)[C@@H](NC(=O)C(NC)c3csc(N)n3)[C@H]2SC1 (stereo partly shown)	demonstrate PAI-1 inhibitor activity
NC[C@H](O)c1ccc(O)c(O)c1 [NOREPINEPHRINE]	demonstrate PAI-1 inhibitor activity
COc1cc(C(=O)NS(=O)(=O)c2ccccc2C)ccc1Cc1cn(C)c2ccc(NC(=O)OC3CCCC3)cc12 [ZAFIRLUKAST]	demonstrate PAI-1 inhibitor activity
